Results reported in publication PMC4264767, “Discovery of Two β-1,2-Mannoside Phosphorylases Showing Different Chain-Length Specificities from Thermoanaerobacter sp. X-514” (PLoS ONE, 2014).

These compounds were tested against T1, Teth514_1788 (Thermoanaerobacter sp. X514, UniProt B0K2C2) (assay: colorimetric α-Man1P release, sequential Bi Bi fit). Details: kinetic constant K iA of substrate A, no inhibition constant; phosphorolysis; Pi 0.10-2.0 mM; 40 mM MES-NaOH pH 6.0; 30°C.
T1 construct: full-length, no signal peptide predicted, C-terminal His6-tag (pET24a) kept, E. coli Rosetta 2 (DE3); theoretical mass 33,997; homodimer
T1 sequence (B0K2C2 1-296): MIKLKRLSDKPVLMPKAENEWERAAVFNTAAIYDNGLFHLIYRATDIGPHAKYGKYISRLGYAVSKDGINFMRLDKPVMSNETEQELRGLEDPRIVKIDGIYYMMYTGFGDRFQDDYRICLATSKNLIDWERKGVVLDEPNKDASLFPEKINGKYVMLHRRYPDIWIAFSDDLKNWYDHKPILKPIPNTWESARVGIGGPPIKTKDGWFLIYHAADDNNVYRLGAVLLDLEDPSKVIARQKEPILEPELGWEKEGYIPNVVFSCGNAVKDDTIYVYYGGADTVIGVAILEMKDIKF
Assay type: biochemical

Compound | K iA [mM]
OC[C@H]1O[C@@H](O[C@@H]2C(O)O[C@H](CO)[C@@H](O)[C@@H]2O)[C@@H](O)[C@@H](O)[C@@H]1O (stereo partly drawn) [product 1, β-D-mannopyranosyl-(1→2)-D-mannose] | 0.63 ± 0.2
OC[C@H]1O[C@@H](O[C@@H]2[C@H](O[C@@H]3[C@H](O[C@@H]4C(O)O[C@H](CO)[C@@H](O)[C@@H]4O)O[C@H](CO)[C@@H](O)[C@@H]3O)O[C@H](CO)[C@@H](O)[C@@H]2O)[C@@H](O)[C@@H](O)[C@@H]1O (stereo partly drawn) [product 3, β-D-mannopyranosyl-(1→2)-β-D-mannopyranosyl-(1→2)-β-D-mannopyranosyl-(1→2)-D-mannose] | 1.9 ± 0.6
OC[C@H]1O[C@@H](O[C@@H]2[C@H](O[C@@H]3C(O)O[C@H](CO)[C@@H](O)[C@@H]3O)O[C@H](CO)[C@@H](O)[C@@H]2O)[C@@H](O)[C@@H](O)[C@@H]1O (stereo partly drawn) [product 2, β-D-mannopyranosyl-(1→2)-β-D-mannopyranosyl-(1→2)-D-mannose] | 2.1 ± 0.5
